Where two headings read alike, the source gives them in different places.
Legend:
[1] = tested on: Affen; settings: in vivo
[2] = tested on: Affen; assay: Test 1: intravenous self-administration in monkeys experienced with sodium methohexital and saline; settings: for Anzahl der Selbstinjektionen: average values, 3 monkeys, sessions of 130 min
[3] = tested on: Affen; assay: Test 2: intravenous self-administration in monkeys receiving cocaine infusions (analogous to Test 1); settings: BHT 920 0,001, 0,003 and 0,01 mg/kg/Injektion or cocaine; 3 monkeys, each dose available for 25 min or 20 infusions
[4] = tested on: drogenabhängigen Affen; assay: Test 3: effect of BHT 920 on cocaine or alfentanil self-administration in drug-dependent monkeys; type: in vivo
Method: Nach Durchführung des Tests Nr. […] In weiteren analogen Versuchen (siehe beiliegende graphische Darstellungen für Affe 1, Affe 2 und Affe 3) wurde den drogenabhängigen Affen BHT 920 in 2 Dosen (0,01 und 0,1 mg/kg/Injektion) gleichzeitig zu steigenden Dosen von Kokain (2 Tiere) beziehungsweise Alfentanil (1 Tier) angeboten. […] Auch sehr hohe Dosen der suchterzeugenden Droge konnten diese Wirkung von BHT 920 nicht aufheben. Aufgrund von Verhaltensbeobachtungen während der oben beschriebenen Tests kann gesagt werden, daß die hemmende Wirkung von BHT 920 nicht durch eine allgemeine Sedation erklärt werden kann. Daraus kann geschlossen werden, daß die Verabreichung von BHT 920 das Bedürfnis nach Kokain mindert und die psychische Abhängigkeit von der Droge durchbricht.

[5] = Extensive animal tests on abuse potential (no method given); type: in vivo
Text: Das ist für die Therapie von großer Bedeutung.

SMILES | Reaktionshäufigkeit [1] | Anzahl der Selbstinjektionen ([2]; 0,01 mg BHT 920/kg/Injektion i.v.) | Anzahl der Selbstinjektionen ([2]; 0,05 mg BHT 920/kg/Injektion i.v.) | Anzahl der Selbstinjektionen ([2]; 0,0001 mg BHT 920/kg/Injektion i.v.) | Anzahl der Selbstinjektionen ([2]; 0,001 mg BHT 920/kg/Injektion i.v.) | Reinforcement ([2]; at the doses used) | Anzahl der genommenen Injektionen der Testsubstanz ([2]; four doses, each tested twice in each monkey, compared with saline and methohexital) | Reaktionshäufigkeit [3] | Kokain - beziehungsweise Alfentanil - Selbstadministrationsrate ([4]; BHT 920 high dose 0,1 mg/kg/Injektion given together with rising doses of cocaine (2 animals) or alfentanil (1 animal)) | Kokain - beziehungsweise Alfentanil - Selbstadministrationsrate ([4]; BHT 920 lower dose 0,01 mg/kg/Injektion given together with rising doses of cocaine (2 animals) or alfentanil (1 animal)) | durch Kokain verursachte Reaktionshäufigkeit ([4]; session following administration of BHT 920, in 2 of 3 animals, compared with cocaine in Test 2) | Mißbrauchspotential [5]
COC(=O)[C@H]1[C@@H](OC(=O)c2ccccc2)C[C@@H]2CC[C@H]1N2C [Kokain] | dosenabhängige Erhöhung der Reaktionshäufigkeit |  |  |  |  |  |  |  |  |  |  | 
C=CCN1CCc2nc(N)sc2CC1 [BHT 920, 6-Allyl-2-amino-5,6,7,8-tetrahydro-4H-thiazolo[4,5-d]azepin] |  | 10 | 18 | 21 | 19 | kein Reinforcement | nicht höher als die Anzahl der genommenen Injektionen von Kochsalzlösung | in dem Bereich lag, der auch bei Kochsalzlösung beobachtet wurde | auf Null sinken | deutlichen Abnahme | wesentlich unter der in Test 2 für Kokain beobachtete Reaktionshäufigkeit | kein Mißbrauchspotential
CCCN[C@H]1CCc2nc(N)sc2C1 [SND 919, (S)-2-Amino-4,5,6,7-tetrahydro-6-n-propylamino-benzothiazol] |  |  |  |  |  |  |  |  |  |  |  | kein Mißbrauchspotential
